Like-named read-outs stand apart in the source and are kept apart here.
Tests used:
[1] = molecular target: influenza virus PA protein (UniProt P15659); type: cell-based; settings: read-out: PA remaining EC50
[2] = Cell viability assay (CCK-8); type: cell-based; settings: human; 293T-Gluc cells, CCK-8, 48 h
Description: CCK-8 (Cell Counting Kit-8) kit is a rapid and highly sensitive detection kit based on WST-8 (water-soluble tetrazolium salt, chemical name: 2-(2-methyloxy-4-nitrophenyl)-3-(4-nitrophenyl)-5-(2,4-disulfophenyl)-2H-tetrazole monosodium salt) and widely applied to cell proliferation and cytotoxicity. WST-8 is a compound similar to MTT, and can be reduced by some dehydrogenases in mitochondria to produce orange-yellow formazan in the presence of an electron coupling reagent. The more and faster the cell proliferation, the darker the color; and the greater the cytotoxicity, the lighter the color. For the same cells, there is a linear relationship between the depth of color and the number of cells. The number of living cells can be indirectly reflected by measuring the light absorption value via an enzyme-linked immunosorbent assay instrument at a wavelength of 450 nm. 293T-Gluc cells were inoculated in a 96-well plate at 2.5×10^4 cells per well, and incubated in 100 μL of DMEM culture medium containing 10% FBS. 24 h after cell plating, 1 μL of the gradiently diluted test compound was added per well (the test compound was dissolved in DMSO and diluted with DMSO). Meanwhile, a blank control (only 100 μL of DMEM culture medium was added), a positive control (1 μL Ribavirin was added), and a negative control (1 μL DMSO was added) were set, and incubated at 37° C. for 48 h. The 96-well plate was taken out, and 10 μL of CCK-8 was added to each well. […] The experiment was repeated three times.

TRIM25 = TRIM25 (Homo sapiens, UniProt Q14258); assay: Biolayer interferometry (BLI) binding to TRIM25; settings: in vitro
Description: (§1) To further investigate the mechanism of degradation of PA protein by compound C1, the inventors tested the binding ability of the compound to TRIM25 protein and PA protein using biolayer interferometry (BLI). […] Meanwhile, the compounds also have the ability of binding PA in vitro.

[3] = tested on: influenza A virus (IAV) A/WSN/33 (H1N1); assay: microbe, parasite or virus in culture; type: cell-based; settings: read-out: Anti-influenza activity EC50
PA protein [4] = molecular target: T1, PA protein (Influenza A virus, UniProt P15659); assay: Biolayer interferometry (BLI) binding to PA; settings: in vitro
Description: as §1

PA protein [5] = molecular target: T1, PA protein; assay: Ubiquitination of PA protein in HEK293T cells (immunoprecipitation, Western Blotting); type: cell-based
PA protein [6] = molecular target: T1, PA protein; type: cell-based
PA protein [7] = molecular target: T1, PA protein; assay: In vitro ubiquitination test; type: biochemical
TRIM25 with PA protein = TRIM25 with PA protein (UniProt P15659+Q14258); assay: Interaction of TRIM25 with PA in HEK293T cells (co-immunoprecipitation); type: cell-based

Sequence of TRIM25 (Q14258 whole entry, species assumed): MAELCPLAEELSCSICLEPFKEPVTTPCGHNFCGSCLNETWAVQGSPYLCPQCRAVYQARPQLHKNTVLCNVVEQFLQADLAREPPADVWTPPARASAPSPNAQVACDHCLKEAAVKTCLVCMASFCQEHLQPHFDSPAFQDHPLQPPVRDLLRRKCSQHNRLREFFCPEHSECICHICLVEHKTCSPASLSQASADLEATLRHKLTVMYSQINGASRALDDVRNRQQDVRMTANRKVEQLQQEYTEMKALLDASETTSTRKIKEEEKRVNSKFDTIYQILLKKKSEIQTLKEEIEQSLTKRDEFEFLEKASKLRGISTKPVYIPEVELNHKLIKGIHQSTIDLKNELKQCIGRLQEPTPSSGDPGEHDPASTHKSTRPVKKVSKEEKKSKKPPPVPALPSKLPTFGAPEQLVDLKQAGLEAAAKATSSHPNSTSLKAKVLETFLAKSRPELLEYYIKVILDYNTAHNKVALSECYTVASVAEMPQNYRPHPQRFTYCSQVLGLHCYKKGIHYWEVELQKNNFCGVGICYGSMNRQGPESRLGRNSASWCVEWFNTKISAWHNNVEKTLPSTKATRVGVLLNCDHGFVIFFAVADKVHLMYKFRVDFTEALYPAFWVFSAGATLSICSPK

Work on `C/C(=C\CC/C(C)=C/C[C@]1(O)C(=O)c2c(O)cc(C)c3c(O)c(C)c(O)c(c23)C1=O)CC/C=C1/CCC(C(C)(C)O)OC1` (some centres unmarked) [Compound C13] yielded a DC50 [1] of 710 ± 20 nM, a CC50 at 48 h [2] greater than 100000 nM and a Kd (TRIM25) of 12000 to 43000 nM. For the same compound, the EC50 ([3]; Influenza A virus, 24 h) was 450 to 2220 nM and the EC50 [3] was 650 ± 10 nM.

With `C/C(=C\C[C@]1(O)C(=O)c2c(O)cc(C)c3c(O)c(C)c(O)c(c23)C1=O)CC/C=C(\C)CCC(O)[C@@]1(C)CC[C@@H](C(C)(C)O)O1` (some centres unmarked) [Compound C9] the DC50 [1] was 1040 ± 80 nM, the CC50 at 48 h [2] was greater than 100000 nM and the Kd (TRIM25) was 12000 to 43000 nM. The EC50 [3] was 1020 ± 50 nM.

In the case of `CC(C)=CC1C/C(=C/CC/C(C)=C/CC/C(C)=C/C[C@]2(O)C(=O)c3c(O)cc(C)c4c(O)c(C)c(O)c(c34)C2=O)CO1` (some centres unmarked) [Compound C4], the DC50 [1] is reported as 1150 ± 170 nM, the CC50 at 48 h [2] is reported as greater than 100000 nM and the Kd (TRIM25) is reported as 12000 to 43000 nM. It also gave an EC50 [3] of 1250 ± 10 nM.

Compound `CC(C)=CCC/C(=C/CC/C(C)=C/CC/C(C)=C/C[C@]1(O)C(=O)c2c(O)cc(C)c3c(O)c(C)c(O)c(c23)C1=O)C(=O)O` [Compound C12] has a DC50 [1] of 1070 ± 100 nM, a CC50 at 48 h [2] greater than 100000 nM and a Kd (TRIM25) of 12000 to 43000 nM. The EC50 [3] was 920 ± 20 nM.

`C/C(=C\CC/C(C)=C/C[C@]1(O)C(=O)c2c(O)cc(C)c3c(O)c(C)c(O)c(c23)C1=O)C/C=C/C1(C)CCC(C(C)(C)O)O1` (some centres unmarked) [Compound C14] gave a DC50 [1] of 1020 ± 30 nM, a CC50 at 48 h [2] greater than 100000 nM and a Kd (TRIM25) of 12000 to 43000 nM. The EC50 [3] was 1060 ± 90 nM.

Compound `C/C(=C\CC/C(C)=C/C[C@]1(O)C(=O)c2c(O)cc(C)c3c(O)cc(O)c(c23)C1=O)CC/C=C(\CO)CC[C@@H](O)C(C)(C)O` [Compound C11] has a DC50 [1] of 620 ± 150 nM, a CC50 at 48 h [2] greater than 100000 nM and a Kd (TRIM25) of 12000 to 43000 nM. For the same compound, the EC50 [3] was 910 ± 80 nM.

Work on `C/C(=C\CC/C(C)=C/C[C@]1(O)C(=O)c2c(O)cc(C)c3c(O)c(C)c(O)c(c23)C1=O)CC/C=C(\CO)CCC1OC(C)(C)OC1(C)C` (some centres unmarked) [Compound C7] yielded a DC50 [1] of 1050 ± 190 nM, a CC50 at 48 h [2] greater than 100000 nM and a Kd (TRIM25) of 12000 to 43000 nM. For the same compound, the EC50 ([3]; Influenza A virus, 24 h) was 450 to 2220 nM and the EC50 [3] was 780 ± 20 nM.

`CC(=O)OC(C=C(C)C)C/C(C)=C/CC/C(C)=C/CC/C(C)=C/C[C@]1(O)C(=O)c2c(O)cc(C)c3c(O)c(C)c(O)c(c23)C1=O` (some centres unmarked) [Compound C5] gave a DC50 [1] of 730 ± 230 nM, a CC50 at 48 h [2] greater than 100000 nM and a Kd (TRIM25) of 12000 to 43000 nM. It also gave an EC50 ([3]; Influenza A virus, 24 h) of 450 to 2220 nM and an EC50 [3] of 570 ± 80 nM.

Compound `C/C(=C\CC/C(C)=C/C[C@]1(O)C(=O)c2c(O)cc(C)c3c(O)c(C)c(O)c(c23)C1=O)CC/C=C(\C)CC[C@@H](O)C(C)(C)O` [Compound C6] has a DC50 [1] of 2090 ± 520 nM, a CC50 at 48 h [2] greater than 100000 nM and a Kd (TRIM25) of 12000 to 43000 nM. For the same compound, the EC50 [3] was 2220 ± 40 nM.

`CC(C)=CCC/C(C=O)=C\CC/C(C)=C/CC/C(C)=C/C[C@]1(O)C(=O)c2c(O)cc(C)c3c(O)c(C)c(O)c(c23)C1=O` [Compound C3] showed a DC50 [1] of 1140 ± 260 nM, a CC50 at 48 h [2] greater than 100000 nM and a Kd (TRIM25) of 12000 to 43000 nM. It also gave an EC50 [3] of 1420 ± 20 nM.

`C/C(=C\C[C@]1(O)C(=O)c2c(O)cc(C)c3c(O)c(C)c(O)c(c23)C1=O)CC/C=C(\C)CCC(O)[C@@]1(C)CC[C@H](C(C)(C)O)O1` (relative stereo) [Compound C10] showed a DC50 [1] of 880 ± 80 nM, a CC50 at 48 h [2] greater than 100000 nM and a Kd (TRIM25) of 12000 to 43000 nM. For the same compound, the EC50 [3] was 1220 ± 10 nM.

Compound `C/C(=C\CC/C(C)=C/C[C@]1(O)C(=O)c2c(O)cc(C)c3c(O)c(C)c(O)c(c23)C1=O)CC/C=C(\CCC1OC(C)(C)OC1(C)C)C(=O)O` (some centres unmarked) [Compound C8] has a DC50 [1] of 800 ± 120 nM, a CC50 at 48 h [2] greater than 100000 nM and a Kd (TRIM25) of 12000 to 43000 nM. The EC50 ([3]; Influenza A virus, 24 h) was 450 to 2220 nM and the EC50 [3] was 550 ± 30 nM.

`NC(=O)c1ncn([C@@H]2O[C@H](CO)[C@@H](O)[C@H]2O)n1` [Ribavirin, reference compound] showed a CC50 at 48 h [2] greater than 100000 nM and an EC50 ([3]; Influenza A virus, 24 h) of 27800 ± 650 nM.

`CC(C)=CCC/C(=C/CC/C(C)=C/CC/C(C)=C/C[C@]1(O)C(=O)c2c(O)cc(C)c3c(O)c(C)c(O)c(c23)C1=O)CO` [Compound C2] gave a Kd (PA protein [4]) of 58000 nM, a DC50 [1] of 650 ± 120 nM and a CC50 at 48 h [2] greater than 100000 nM. The Kd (TRIM25) was 12000 to 43000 nM, the EC50 ([3]; Influenza A virus, 24 h) was 450 to 2220 nM and the EC50 [3] was 580 ± 60 nM.

In the case of `C/C(=C\CC/C(C)=C/C[C@]1(O)C(=O)c2c(O)cc(C)c3c(O)c(C)c(O)c(c23)C1=O)CC/C=C(\CO)CC[C@@H](O)C(C)(C)O` [Compound C1], the Kd (PA protein [4]) is reported as 11000 nM, the “Polyubiquitination level of PA protein in cells” value (PA protein [5]) is reported as “can promote the polyubiquitination level of PA protein” and the “Expression level of PA protein after treatment with proteasome inhibitor MG-132” value (PA protein [6]) is reported as “almost completely restored”. The “Restoration of PA protein after treatment with lysosome inhibitor ConA” value (PA protein [6]) was “hardly affected”, the DC50 [1] was 440 ± 90 nM and the CC50 at 48 h [2] was greater than 100000 nM. It also gave a Kd (TRIM25) of 12000 to 43000 nM, an EC50 ([3]; Influenza A virus, 24 h) of 450 to 2220 nM and an EC50 [3] of 450 ± 40 nM. The “Polyubiquitination level of PA protein in vitro” value (PA protein [7]) was “can promote the polyubiquitination level of PA protein in vitro” and the “Interaction of TRIM25 with PA protein” value (TRIM25 with PA protein) was “can promote the interaction of TRIM25 with PA protein”.

From patent publication US20240343666A1, “PERINAPHTHENONE COMPOUND AND USE THEREOF” (INSTITUTE OF MEDICINAL BIOTECHNOLOGY, CHINESE ACADEMY OF …, priority 2021, published 2024)
